Like-named read-outs stand apart in the source and are kept apart here. Square brackets hold non-standard residues; d marks the D form. Peptide text beside a SMILES is read from it. * marks the point of attachment. X2 = CCCCCCNC[C@H](Cc1ccccc1)N*; X3 = OCCCCCNC[C@H](Cc1ccccc1)N*; X1 = OCCNC[C@H](Cc1ccccc1)N*; Aib = CC(C)(N)C(=O)O
What was measured:
Bacillus subtilis = type: cell-based
Description: (§1) All these peptides were tested for their antibacterial activity using standard minimal inhibitory concentration (MIC) assays exactly as described in Mattheus et al. […] They are identical except for the glutamine residues, which are replaced with methyl protected glutamic acid residues in ABCD-Phaol. Although ABCD-Phaol should be a functionally reliable model of its natural counterpart, the difference in activity can only be explained by the different interaction with the membrane of the amino acid residue side chains. The amide interaction positively influences activity, so the conversion of Glu(OMe) to Gln improves the activity.

Enterococcus faecalis = type: cell-based
Description: as §1

Staphylococcus aureus [1] = type: cell-based
Description: as §1

Bacillus cereus = type: cell-based
Description: as §1

[2] = test system: Bacillus cereus, Bacillus subtilis, Enterococcus faecalis, Staphylococcus aureus; assay: Antibacterial activity, MIC assays, overall statement on the bacteria tested; type: cell-based; conditions: standard MIC assays; four bacteria tested
Description: as §1

Staphylococcus aureus [3] = conditions: natural Septocylindrin B; ref [1]; cited from earlier work
Text: Table 1 Antibacterial activity (MIC, µM) of Septocylindrin B and selected analogues. ^a | column: Staphylococcus aureus

[4] = standard MIC assay as described in Mattheus et al. [13]
[5] = standard MIC assay as described in Mattheus et al. [13], cell holds only footnote mark d

Molecule: Ac-Aib1-Pro2-Aib3-Ala4-Aib5-Ala6-Glu(OMe)7-Aib8-Val9-Aib10-Gly11-Leu12-Aib13-Pro14-Val15-Aib16-Aib17-Glu(OMe)18-Glu(OMe)19- Phe20-ethanolamine [ABCD-Phe-ethanolamine]
- Antibacterial activity (MIC) Bacillus subtilis (Bacillus subtilis; [4]): >100 µM
- Antibacterial activity (MIC) Enterococcus faecalis (Enterococcus faecalis; [4]): 6 µM
- Antibacterial activity (MIC) Staphylococcus aureus (Staphylococcus aureus [1]; [5]): ^d (A reduced growth is clearly visible, but no MIC end point ≤100 µM)
- Antibacterial activity (MIC) Bacillus cereus (Bacillus cereus; [4]): 100 µM

Molecule: CCCCCCNC[C@H](Cc1ccccc1)NC(=O)[C@H](CCC(=O)OC)NC(=O)[C@H](CCC(=O)OC)NC(=O)C(C)(C)NC(=O)C(C)(C)NC(=O)[C@@H](NC(=O)[C@@H]1CCCN1C(=O)C(C)(C)NC(=O)[C@H](CC(C)C)NC(=O)CNC(=O)C(C)(C)NC(=O)[C@@H](NC(=O)C(C)(C)NC(=O)[C@H](CCC(=O)OC)NC(=O)[C@H](C)NC(=O)C(C)(C)NC(=O)[C@H](C)NC(=O)C(C)(C)NC(=O)[C@@H]1CCCN1C(=O)C(C)(C)NC(C)=O)C(C)C)C(C)C [ABCD-Phaol-N6, Ac-Aib1-Pro2-Aib3-Ala4-Aib5-Ala6-Glu(OMe)7-Aib8-Val9-Aib10-Gly11-Leu12-Aib13-Pro14-Val15-Aib16-Aib17-Glu(OMe)18-Glu(OMe)19-Phaol20-N6] (Ac-[Aib]P[Aib]A[Aib]AE(OMe)[Aib]V[Aib]GL[Aib]PV[Aib][Aib]E(OMe)E(OMe)-X2)
- Antibacterial activity (MIC) Bacillus subtilis (Bacillus subtilis): >100 µM
- Antibacterial activity (MIC) Enterococcus faecalis (Enterococcus faecalis): 25 µM
- Antibacterial activity (MIC) Staphylococcus aureus (Staphylococcus aureus [1]): >100 µM
- Antibacterial activity (MIC) Bacillus cereus (Bacillus cereus): >100 µM

Molecule: COC(=O)CC[C@H](NC(=O)[C@H](C)NC(=O)C(C)(C)NC(=O)[C@H](C)NC(=O)C(C)(C)NC(=O)[C@@H]1CCCN1C(=O)C(C)(C)NC(C)=O)C(=O)NC(C)(C)C(=O)N[C@H](C(=O)NC(C)(C)C(=O)NCC(=O)N[C@@H](CC(C)C)C(=O)NC(C)(C)C(=O)N1CCC[C@H]1C(=O)N[C@H](C(=O)NC(C)(C)C(=O)NC(C)(C)C(=O)N[C@@H](CCC(=O)OC)C(=O)N[C@@H](CCC(=O)OC)C(=O)N[C@H](CNCCO)Cc1ccccc1)C(C)C)C(C)C [ABCD-Phaol] (Ac-[Aib]P[Aib]A[Aib]AE(OMe)[Aib]V[Aib]GL[Aib]PV[Aib][Aib]E(OMe)E(OMe)-X1)
- Antibacterial activity (MIC) Bacillus subtilis (Bacillus subtilis): >50 µM
- Antibacterial activity (MIC) Enterococcus faecalis (Enterococcus faecalis): 6 µM
- Antibacterial activity (MIC) Staphylococcus aureus (Staphylococcus aureus [1]): >50 µM
- Antibacterial activity (MIC) Bacillus cereus (Bacillus cereus): >50 µM

Molecule: COC(=O)CC[C@H](NC(=O)[C@H](C)NC(=O)C(C)(C)NC(=O)[C@H](C)NC(=O)C(C)(C)NC(=O)[C@@H]1CCCN1C(=O)C(C)(C)NC(C)=O)C(=O)NC(C)(C)C(=O)N[C@H](C(=O)NC(C)(C)C(=O)NCC(=O)N[C@@H](CC(C)C)C(=O)NC(C)(C)C(=O)N1CCC[C@H]1C(=O)N[C@H](C(=O)NC(C)(C)C(=O)NC(C)(C)C(=O)N[C@@H](CCC(=O)OC)C(=O)N[C@@H](CCC(=O)OC)C(=O)N[C@H](CNCCCCCO)Cc1ccccc1)C(C)C)C(C)C [ABCD-Phaol-N5O, Ac-Aib1-Pro2-Aib3-Ala4-Aib5-Ala6-Glu(OMe)7-Aib8-Val9-Aib10-Gly11-Leu12-Aib13-Pro14-Val15-Aib16-Aib17-Glu(OMe)18-Glu(OMe)19-Phaol20-N5O] (Ac-[Aib]P[Aib]A[Aib]AE(OMe)[Aib]V[Aib]GL[Aib]PV[Aib][Aib]E(OMe)E(OMe)-X3)
- Antibacterial activity (MIC) Bacillus subtilis (Bacillus subtilis): >100 µM
- Antibacterial activity (MIC) Enterococcus faecalis (Enterococcus faecalis): 1.5 µM
- Antibacterial activity (MIC) Staphylococcus aureus (Staphylococcus aureus [1]; [5]): ^d (A reduced growth is clearly visible, but no MIC end point ≤100 µM)
- Antibacterial activity (MIC) Bacillus cereus (Bacillus cereus): 50 µM

Molecule: CC(=O)NC(C)(C)C(=O)N1CCC[C@H]1C(=O)NC(C)(C)C(=O)N[C@@H](C)C(=O)NC(C)(C)C(=O)N[C@@H](C)C(=O)N[C@@H](CCC(N)=O)C(=O)NC(C)(C)C(=O)N[C@H](C(=O)NC(C)(C)C(=O)NCC(=O)N[C@@H](CC(C)C)C(=O)NC(C)(C)C(=O)N1CCC[C@H]1C(=O)N[C@H](C(=O)NC(C)(C)C(=O)NC(C)(C)C(=O)N[C@@H](CCC(N)=O)C(=O)N[C@@H](CCC(N)=O)C(=O)N[C@H](CNCCO)Cc1ccccc1)C(C)C)C(C)C [Septocylindrin B synthetic] (Ac-[Aib]P[Aib]A[Aib]AQ[Aib]V[Aib]GL[Aib]PV[Aib][Aib]QQ-X1)
- Antibacterial activity, result in words [2]: activity against all four bacteria tested
- Antibacterial activity (MIC) Bacillus subtilis (Bacillus subtilis): 12.5 µM
- Antibacterial activity (MIC) Enterococcus faecalis (Enterococcus faecalis): 6.25 µM
- Antibacterial activity (MIC) Staphylococcus aureus (Staphylococcus aureus [1]): 12.5 µM
- Antibacterial activity (MIC) Bacillus cereus (Bacillus cereus): 6.25 µM
- Antibacterial activity (MIC) Staphylococcus aureus (Staphylococcus aureus [3]): 8 µM
